Test results published in ChEMBL document CHEMBL1136000, “Synthesis of a small library of 3-(carboranylalkyl)thymidines and their biological evaluation as substrates for human thymidine kinases 1 and 2” (J Med Chem, 2002).

Tests used:
[1] = molecular target: T1, Thymidine kinase, cytosolic (Homo sapiens) (UniProt P04183)
T1 sequence (whole entry): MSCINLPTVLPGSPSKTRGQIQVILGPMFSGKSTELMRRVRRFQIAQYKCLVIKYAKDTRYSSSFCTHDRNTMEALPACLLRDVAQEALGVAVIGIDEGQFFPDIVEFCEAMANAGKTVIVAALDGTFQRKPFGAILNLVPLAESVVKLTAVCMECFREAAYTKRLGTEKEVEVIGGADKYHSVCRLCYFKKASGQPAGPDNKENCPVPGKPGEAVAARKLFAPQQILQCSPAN
Description: Rate of phosphorylation in the presence of 1% DMSO using Phosphoryl transfer assay in recombinant human cytosolic thymidine kinase 1 at 10 uM

[2] = molecular target: T1, Thymidine kinase, cytosolic (Homo sapiens); remark: listed apart in the source
Description: Rate of phosphorylation in the presence of 1% DMSO using Phosphoryl transfer assay in recombinant human cytosolic thymidine kinase 1 at 5 uM

[3] = molecular target: Thymidine kinase 2, mitochondrial (Homo sapiens) (UniProt O00142)
Chain of Thymidine kinase 2, mitochondrial (Homo sapiens) (O00142 whole entry, looked up): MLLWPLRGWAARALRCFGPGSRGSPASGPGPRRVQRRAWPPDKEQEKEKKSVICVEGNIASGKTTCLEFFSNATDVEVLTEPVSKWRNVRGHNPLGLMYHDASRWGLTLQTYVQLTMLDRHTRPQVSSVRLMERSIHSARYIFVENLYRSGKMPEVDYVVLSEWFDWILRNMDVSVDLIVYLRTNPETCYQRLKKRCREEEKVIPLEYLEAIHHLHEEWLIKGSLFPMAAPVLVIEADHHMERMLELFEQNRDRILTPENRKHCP

SMILES | Rate of phosphorylation [1] | Rate of phosphorylation [2] | Rate of phosphorylation [3]
Cc1cn([C@H]2C[C@H](O)[C@@H](CO)O2)c(=O)n(CCC2CC2CC(O)CO)c1=O (some centres undefined) | 0.45 | 0.49 | 0.002
Cc1cn([C@H]2C[C@H](O)[C@@H](CO)O2)c(=O)[nH]c1=O | 1 | 1 | 1
Cc1cn([C@H]2C[C@H](O)[C@@H](CO)O2)c(=O)n(CCCCCCCC2CC2CC(O)CO)c1=O (some centres undefined) | 0.13 | 0.13 | < 0.001
Cc1cn([C@H]2C[C@H](O)[C@@H](CO)O2)c(=O)n(CCCCC2CC2)c1=O | 0.13 | 0.17 | 0.003
Cc1cn([C@H]2C[C@H](O)[C@@H](CO)O2)c(=O)n(CCC2CC2)c1=O | 0.39 | 0.42 | 0.002
Cc1cn([C@H]2C[C@H](O)[C@@H](CO)O2)c(=O)n(CCCC2CC2)c1=O | 0.3 | 0.27 | 0.002
Cc1cn([C@H]2C[C@H](O)[C@@H](CO)O2)c(=O)n(CCCCCC2CC2)c1=O | 0.41 | 0.57 | 0.001
Cc1cn([C@H]2C[C@H](O)[C@@H](CO)O2)c(=O)n(CCCCCCCC2CC2)c1=O | 0.11 | 0.15 | < 0.001
Cc1cn([C@H]2C[C@H](O)[C@@H](CO)O2)c(=O)n(CCCCCC2CC2CC(O)CO)c1=O (some centres undefined) | 0.41 | 0.39 | 0.002
Cc1cn([C@H]2C[C@H](O)[C@@H](CO)O2)c(=O)n(CCCCCCC2CC2)c1=O | 0.28 | 0.31 | < 0.001
Cc1cn([C@H]2C[C@H](O)[C@@H](CO)O2)c(=O)n(CCCC2CC2CC(O)CO)c1=O (some centres undefined) | 0.4 | 0.43 | 0.004
Cc1cn([C@H]2C[C@H](O)[C@@H](CO)O2)c(=O)n(CCCCCCC2CC2CC(O)CO)c1=O (some centres undefined) | 0.32 | 0.22 | 0.002
Cc1cn([C@H]2C[C@H](O)[C@@H](CO)O2)c(=O)n(CCCCC2CC2CC(O)CO)c1=O (some centres undefined) | 0.21 | 0.21 | 0.003
